Assay results taken from patent publication US5985894A, “N-substituted quinolines” (Hoechst Marion Roussel, priority 1991, dated 1999).

Assays:
[1] = tested on: angiotensin II; assay: Test for antagonistic activity of angiotensin II on a demedullated rat; type: in vivo, Male Sprague-Dawley rats; conditions: iv, 5 min, pressure effect of angiotensin II 0.75 micrograms/kg, compound injected (jugular vein) 5 minutes before, read-out: 50% inhibiting dose
Protocol: 3) Test for Antagonistic Activity of Angiotensin II on a Demedullated Rat
Male Sprague-Dawley rats weighing 250 to 350 g were anaesthetized by an intraperitoneal injection of sodium pentobarbital (60 mg/kg). The diastolic arterial pressure was recorded using a heparinated catheter (PE50) introduced into the left carotid of the animal, and connected to a pressure calculator (Gould, Pressure Processor) by a Gould pressure sensor. A catheter was introduced into the right jugular vein of the animal for the injection of the molecules to be studied. The animal was placed under assisted respiration and a bilateral section of the pneumogastric nerves was carried out. The rat was then demedullated. After a sufficient period of stabilization, the study of the antagonism of the compounds vis-a-vis angiotensin II (Ciba Hypertensin) was carried out in the following manner.
1--Three consecutive injections of angiotensin II (0.75 micrograms/kg) spaced out over 15 minutes allowed a reproducible and stable pressure response to be obtained.
2--While keeping a time period of 15 minutes for the administration of angiotensin II, the molecules to be studied were injected 5 minutes before angiotensin II.
The pressure effects of angiotensin II in the presence of the antagonist were expressed as a percentage of the pressure effects of angiotensin II administered on its own. The 50% inhibiting dose of the effect studied was determined. Each animal was considered as its own control and the results are in the following Table

[2] = Passive avoidance test (scopolamine amnesia); type: in vivo, Male mice (CD1 Charles River); conditions: s.c., 24 hours after treatment
[3] = biological target: T1, Angiotensin II Receptor (Rattus norvegicus, UniProt P25095); assay: Test on the Angiotensin II Receptor (displacement of 125I angiotensin II, rat liver membranes); type: binding; conditions: pH 7.4, 25° C., 150 minutes
T1 construct: A fresh membrane preparation obtained from the liver of a rat was used; from tissue; host or cells: rat liver, fresh membrane preparation
T1 sequence (P25095 1-359): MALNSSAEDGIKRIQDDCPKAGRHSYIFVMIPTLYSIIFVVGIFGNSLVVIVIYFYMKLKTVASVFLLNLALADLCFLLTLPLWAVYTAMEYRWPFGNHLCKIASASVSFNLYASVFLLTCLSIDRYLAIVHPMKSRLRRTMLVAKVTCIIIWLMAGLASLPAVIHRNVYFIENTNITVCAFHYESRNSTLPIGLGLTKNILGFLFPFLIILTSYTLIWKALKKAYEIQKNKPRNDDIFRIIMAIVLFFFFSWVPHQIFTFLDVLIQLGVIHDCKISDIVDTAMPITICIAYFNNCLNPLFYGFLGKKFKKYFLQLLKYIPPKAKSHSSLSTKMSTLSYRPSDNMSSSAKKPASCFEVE
Protocol: 1) Test on the Angiotensin II Receptor
A fresh membrane preparation obtained from the liver of a rat was used and the tissue was ground up in a polytron in a Tris 50 mM pH 7.4 buffer. After being ground up, the tissue was centrifuged 3 times at 30,000 g for 15 minutes with intermediate taking up of the deposits in the Tris pH 7.4 buffer. The last deposits were suspended in a pH 7.4 incubation buffer (Tris 20 mM, NaCl 135 mM, KCl 10 mM, glucose 5 mM, MgCl2 10 mM, phenyl methyl sulfonyl fluoride 0.3 mM, bacitracine 0.1 mM (0.2% bovine albumin serum). 2 ml aliquoted fractions were divided into hemolysis tubes and ^125 I angiotensin II (25,000 DPM/tube) and the product to be studied were added. The product has first tested at 3×10^-5 M in triplicate. When the test product displaced more than 50% of the radioactivity linked specifically to the receptor, it was tested again according to a range of 7 concentrations to determine the concentration that inhibited the radioactivity linked specifically to the receptor by 50%. In this way, the 50% inhibiting concentration was determined.
The non-specific bond was determined by the addition of the product of Example 94 of the European Patent No. 0,253,310 at 10^-5 M (in triplicate). The deposit was incubated at 25° C. for 150 minutes, put back in a water bath at 0° C. for 5 minutes, filtered under vacuum, rinsed with Tris pH 7.4 buffer and the radioactivity was counted in the presence of scintillating Triton. The results were expressed directly as a 50% inhibiting concentration (IC50), that is to say as a concentration of product studied, expressed in nM, necessary to displace 50% of the specific radioactivity fixed on the receptor studied.

[4] = tested on: angiotensin II on the isolated portal vein; assay: Antagonistic activity of angiotensin II on the isolated portal vein; type: cell-based, male Wistar rats; conditions: isolated rat portal vein, angiotensin II 3.10^-8 M, compound 15 minutes before; read-out: IC50 (50% inhibition of the response to angiotensin)
Protocol: The portal vein was removed from male Wistar rats weighing about 350 g (IFFA Credo France) after cervical dislocation, and put rapidly into a physiological solution (see below) at ambient temperature. A ring of about 1 mm was mounted in a bath with an isolated element containing 20 ml of the following physiological solution (composition in mM: NaCl 118.3-KCl 4.7-MgSO4 1.2-KH2 PO4 1.2-NaHCO3 25-glucose 11.1-CaCl2 2.5). The medium was maintained at 37° C. and oxygenated with a mixture of O2 95%, CO2 5%. The initial pressure imposed was 1 g and the rings were left at rest for 60 to 90 minutes. To avoid spontaneous contractions, verapamil was added to the incubation bath (1.10^-6 M). At the end of the rest period, angiotensin II (Ciba hypertensis) 3.10^-8 M were added to the incubation bath and left in contact with the preparation for one minute. This operation was repeated every 30 minutes with the tissue being washed 3 or 4 times between two stimulations with angiotensin. The compound to be studied was introduced into the bath 15 minutes before a new stimulation with angiotensin. As increasing concentrations of the molecule were used, an IC50 (concentration that produced a 50% inhibition of the response to angiotensin) was calculated, expressed in nanomoles.

Row | Structure (SMILES) | ED50 [1] [mg/kg] | PERCENTAGE OF INCREASE IN THE LATENCY TIME RELATIVE TO THE CONTROLS ([2]; dose 0.1 μg/kg) [%] | PERCENTAGE OF INCREASE IN THE LATENCY TIME RELATIVE TO THE CONTROLS ([2]; dose 0.25 μg/kg) [%] | PERCENTAGE OF INCREASE IN THE LATENCY TIME RELATIVE TO THE CONTROLS ([2]; dose 1 μg/kg) [%] | PERCENTAGE OF INCREASE IN THE LATENCY TIME RELATIVE TO THE CONTROLS ([2]; dose 2.5 μg/kg) [%] | PERCENTAGE OF INCREASE IN THE LATENCY TIME RELATIVE TO THE CONTROLS ([2]; dose 10 μg/kg) [%] | PERCENTAGE OF INCREASE IN THE LATENCY TIME RELATIVE TO THE CONTROLS ([2]; dose 25 μg/kg) [%] | PERCENTAGE OF INCREASE IN THE LATENCY TIME RELATIVE TO THE CONTROLS ([2]; dose 100 μg/kg) [%] | PERCENTAGE OF INCREASE IN THE LATENCY TIME RELATIVE TO THE CONTROLS ([2]; dose 250 μg/kg) [%] | PERCENTAGE OF INCREASE IN THE LATENCY TIME RELATIVE TO THE CONTROLS ([2]; dose 1000 μg/kg) [%] | IC50 [3] [nM] | IC50 [4] [nM]
1 | CCCCc1cn(Cc2ccc(-c3ccccc3C(=O)O)cc2)c2cc(CC(=O)O)ccc2c1=O [Example 50] | 0.61 | 20 | 31 | 84 | 93 | 190 | 225 | 149 |  |  |  | 
2 | CCCCc1cn(Cc2ccc(-c3ccccc3C(=O)O)cc2)c2ccc(C)cc2c1=O [Example 58] |  | 3 |  | 29 |  | 112 | 110 | 129 |  |  |  | 
3 | CCCCc1cn(Cc2ccc(-c3ccccc3C(=O)O)cc2)c2cc(CCC(=O)O)ccc2c1=O [Example 38] |  | 1 |  | 57 |  | 118 | 132 | 131 | 101 | 158 |  | 
4 | CCCCc1cn(Cc2ccc(-c3ccccc3C(=O)O)cc2)c2c(Br)cccc2c1=O [Example 18, 4'-[(3-butyl-1,4-dihydro-8-bromo-4-oxo-1-quinolinyl)-methyl](1,1'-biphenyl)2-carboxylic acid] | 3.9 |  |  |  |  |  |  |  |  |  | 74 | 
5 | CCCCc1cn(Cc2ccc(-c3ccccc3C(=O)O)cc2)c2c(c1=O)CCCC2 [Example 22, 4'-[(3-butyl-1,4,5,6,7,8-hexahydro-4-oxo-1-quinolinyl)-methyl](1,1'-biphenyl)-2-carboxylic acid] | 1 |  |  |  |  | 8 | 26 | 66 | 128 | 127 | 90 | 
6 | CCCCc1cn(Cc2ccc(-c3ccccc3C(=O)O)cc2)c2cc(CO)ccc2c1=O [Example 12] | 3.76 |  |  |  |  |  |  |  |  |  |  | 49
7 | CCCCc1cn(Cc2ccc(-c3ccccc3C(=O)O)cc2)c2cc(C(=O)N3CCCC3)ccc2c1=O [Example 16] | 1.2 |  |  |  |  |  |  |  |  |  | 79 | 31.7
8 | CCCCc1cn(Cc2ccc(-c3ccccc3C(=O)O)cc2)c2ccccc2c1=S [Example 6] | 6.65 |  |  |  |  |  |  |  |  |  | 400 | 66
9 | CCCCc1cn(Cc2ccc(-c3ccccc3C(=O)O)cc2)c2ccccc2c1=O [Example 4, 4'-[(3-butyl-1,4-dihydro-4-oxo-1-quinolinyl)-methyl](1,1'-biphenyl)-2-carboxylic acid] | 7.55 |  |  |  |  |  |  |  |  |  | 180 | 96.5
10 | CCCCc1cn(Cc2ccc(-c3ccccc3-c3nn[nH]n3)cc2)c2cc(C(=O)N3CCCC3)ccc2c1=O [Example 52] | 0.23 |  |  |  |  |  |  |  |  |  | 8.7 | 
11 | CCCCc1cn(Cc2ccc(-c3ccccc3C(=O)O)cc2)c2cc(C(=O)O)ccc2c1=O [Example 10, 3-butyl-1-[[2'-carboxy-(1,1'-biphenyl)-4-yl]-methyl]-1,4-dihydro-4-oxo-7-quinoline carboxylic acid] | 1.27 |  |  |  |  |  |  |  |  |  | 92 | 31
12 | CCCCc1cn(Cc2ccccc2CC(=O)O)c2ccccc2c1=O [Example 56] |  |  |  |  |  | 24 | 49 | 98 | 105 | 122 |  | 
13 | CCCCc1cn(Cc2ccc(-c3ccccc3C(=O)O)cc2)c2c(C(=O)O)cccc2c1=O [Example 30] | 0.21 |  |  | 23 |  | 37 | 65 | 91 | 144 | 126 | 54 | 
